We go through 6 molecules from PubChem BioAssay (NCI).

Some test systems named below: MCF7 breast; HS 578T breast; SNB-75 CNS; SF-295 CNS; SK-OV-3 ovarian; BT-549 breast; ACHN renal; OVCAR-3 ovarian; NCI-H226 lung; HT29 colon; COLO 205 colon; SF-539 CNS; T-47D breast; MDA-MB-435; RPMI-8226 leukemia; HOP-62 NSCLC; NCI-H23 lung; K-562 leukemia; SNB-19 CNS; MALME-3M melanoma.
What all share (assay): NCI-60 cell line screen, 48 h

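Growth conditions: 96-well plates. Treatment: test compound, 48 hours, 5 concentrations. Analysis: linear interpolation between bracketing concentrations; unreached endpoints set to highest concentration. TGI marks complete inhibition of growth.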

As to `O=C1C(Cl)=C(N2C(=O)CCCC2=O)C(=O)c2ccccc21`, the TGI is 52.1 µM with MCF7 breast; over 100 µM in the assay with HS 578T breast; over 100 µM with SNB-75 CNS; over 100 µM in the assay with SF-295 CNS; over 100 µM with SK-OV-3 ovarian; 36.2 µM with BT-549 breast. For the same molecule, the TGI was 21 µM in the assay with ACHN renal; over 100 µM in the assay on OVCAR-3 ovarian; over 100 µM in the assay on NCI-H226 lung; 29.2 µM in the assay with HT29 colon; 19.1 µM in the assay on COLO 205 colon; 38 µM in the assay with SF-539 CNS. Besides, the TGI with T-47D breast was 95.7 µM; in the assay with MDA-MB-435, 44.9 µM; with RPMI-8226 leukemia, 40.9 µM; in the assay with HOP-62 NSCLC, over 100 µM; with NCI-H23 lung, 36 µM; in the assay with K-562 leukemia, 6.54 µM.

In the case of `CCC(=O)N1NC(=O)C(CC)(CC)C1=O`, the TGI in the assay on MCF7 breast, in the assay on HS 578T breast, in the assay on SNB-75 CNS, in the assay with SF-295 CNS, in the assay on SK-OV-3 ovarian and in the assay on BT-549 breast was over 100 µM each time. Also, the TGI in the assay on ACHN renal, with SNB-19 CNS, in the assay on OVCAR-3 ovarian, in the assay on NCI-H226 lung, in the assay on HT29 colon and with COLO 205 colon was over 100 µM each time. Further, the TGI in the assay with T-47D breast, in the assay on MDA-MB-435, in the assay with RPMI-8226 leukemia, with HOP-62 NSCLC, in the assay on NCI-H23 lung and with K-562 leukemia was over 100 µM in each case.

In the case of `COC(=O)C1C(OC(=O)C(Cl)(c2ccccc2)c2ccccc2)CC2CCC1N2C` (centres undefined), the TGI in the assay on MCF7 breast, in the assay on SNB-75 CNS, in the assay on SF-295 CNS, in the assay with SK-OV-3 ovarian, in the assay on BT-549 breast and in the assay with ACHN renal was over 100 µM each time. Also, the TGI with SNB-19 CNS, with MALME-3M melanoma, in the assay on OVCAR-3 ovarian, in the assay with NCI-H226 lung, with HT29 colon and in the assay on COLO 205 colon was over 100 µM throughout. Also, the TGI with SF-539 CNS, in the assay on T-47D breast, in the assay on MDA-MB-435, in the assay with RPMI-8226 leukemia, with HOP-62 NSCLC and in the assay with NCI-H23 lung was over 100 µM throughout. For the same molecule, in the assay on K-562 leukemia, the TGI is over 100 µM.

Turning to `CSC1=NC(C(N)=O)C(N)N1C` (centres undefined), the TGI in the assay on HS 578T breast, in the assay on SF-295 CNS, in the assay with SK-OV-3 ovarian, in the assay with BT-549 breast, in the assay with ACHN renal and in the assay with SNB-19 CNS was over 100 µM in each case. Further, the TGI in the assay on MALME-3M melanoma, in the assay with OVCAR-3 ovarian, in the assay with NCI-H226 lung, in the assay with HT29 colon, in the assay on COLO 205 colon and with SF-539 CNS was over 100 µM each time. In addition, the TGI with T-47D breast, in the assay with MDA-MB-435, in the assay on RPMI-8226 leukemia, in the assay with HOP-62 NSCLC, in the assay with NCI-H23 lung and in the assay on K-562 leukemia was over 100 µM each time.

Turning to `Cc1cnc(-c2c[nH]c3ccccc23)nc1-c1c[nH]c2ccccc12`, the TGI in the assay with MCF7 breast is 19.1 µM; with HS 578T breast, over 100 µM; in the assay with SNB-75 CNS it was 9.64 µM; with SF-295 CNS, 15.2 µM; in the assay with SK-OV-3 ovarian it was 24 µM; in the assay with BT-549 breast, 67.7 µM. The TGI in the assay with ACHN renal amounted to 10 µM; in the assay with SNB-19 CNS, 24.9 µM; in the assay on OVCAR-3 ovarian, 21.7 µM; in the assay with HT29 colon, 14.7 µM; with COLO 205 colon, 16.8 µM; with SF-539 CNS, 30.7 µM. Also, the TGI in the assay with T-47D breast is 9.15 µM; in the assay with MDA-MB-435, 19.8 µM; in the assay with RPMI-8226 leukemia, over 100 µM; in the assay on HOP-62 NSCLC it was 24.8 µM; in the assay with K-562 leukemia it was 26 µM.

Turning to `CN(C)c1nc2n(CCO)c(-c3ccccc3)c(-c3ccccc3)nc-2c(=O)n1`, the TGI in the assay on HS 578T breast, with SNB-75 CNS, in the assay with SF-295 CNS, in the assay on SK-OV-3 ovarian, in the assay on BT-549 breast and in the assay on ACHN renal was over 100 µM throughout. The TGI with SNB-19 CNS, with MALME-3M melanoma, in the assay with OVCAR-3 ovarian, in the assay with NCI-H226 lung, with HT29 colon and in the assay on COLO 205 colon was over 100 µM in each case. The TGI with SF-539 CNS, in the assay on T-47D breast, with MDA-MB-435, in the assay with RPMI-8226 leukemia, in the assay on HOP-62 NSCLC and with NCI-H23 lung was over 100 µM throughout. The same molecule returned a TGI with K-562 leukemia of over 100 µM.
